Laboratory results: patent US5681738A, “Use of 10-oxo-trans-8-decenoic acid in mushroom cultivation” (The Penn State Research Foundation, priority 1992, dated 1997)

Assays:
[1] = tested on: separated stipes of Agaricus bisporus; experiment: Elongation of separated stipes on test agar containing mushroom supernatants, 6-day storage at 12° C.; design: species or system Agaricus bisporus (off-white); conditions: as a function of added ODA
Experimental: Four type strains of mushrooms were used: the white, off-white, hybrid white (U3) and hybrid off-white (U1). Mushrooms from each flush were harvested before the veil was broken. Freshly harvested mushrooms were transported within about one hour after harvest to Borland Laboratory and placed in the pilot plant cold room (4° C.) for about two hours before sampling. Mushrooms were sorted on the basis of size and appearance. Diseased, damaged, misshapen, veil-opened and extremely large or small mushrooms (>40 or <25 mm in cap diameter) were discarded. Mushrooms of uniform size (25-40 mm) and maturity of the button stage (stage 1, veil intact tightly) were used in this research.
Whole stipes were cut at the lower portions to a length of 7-9 mm to standardize the sample, and marked at the middle of the veil, which is the location where the veil attaches to the stipe, to indicate the upper and lower stipes. The separated stipes contained 2-4 mm of upper stipes and 5-6 nun of lower stipes. […] The length of separated stipes and upper stipes was measured using a vernier caliper before and after certain days of storage.
Sterile mushroom supernatants (25 mL), phosphate buffer and deionized H2 O were added aseptically into 175 mL agar solution prior to dispensing into dishes. […] The concentrations of ODA in the 2% agar were calculated to be 3.4×10^-6, 6.0×10^-5, and 1.2×10^-4 M for treatments 3, 4 and 5. […]

[2] = Dissociation constant by titration with ethanolic NaOH; format: physicochemical; conditions: water; aqueous solution; Henderson-Hasselbalch; standard deviation 10^0.04; read-out: dissociation constant (Ka)
Experimental: The purity of ODA was then determined by titration with ethanolic NaOH. The molarity of NaOH was standardized by anhydrous oxalic acid which was dried overnight at 100° C. Three points in the titration curve, with the ratios of [A-] to [HA] equal to 1/3, 1/1 and 3/1, respectively, were chosen for the calculation of the dissociation constant (Ka) of ODA based on the Henderson-Hasselbalch equation (Mathews et al., (1990)): […]

[3] = tested on: Agaricus bisporus mycelia; experiment: Laccase activity of mycelia grown in potato dextrose yeast broth at 25° C.; format: cell-based, Agaricus bisporus (hybrid off-white)
Experimental: (§1) The commercial mushroom spawn (hybrid off-white), Agaricus bisporus (Lange) Imbach, was obtained from Alpha Spawn Co., Avondale, Pa., and inoculated onto potato dextrose yeast (PDY) agar (Difco) and incubated at 25° C. A pure culture was obtained from the grain spawn grown on petri dishes and re-inoculated into PDY agar and maintained at 25° C. before use.
(§2) The mushroom culture was grown on PDY agar or in PDY broth, both containing 0.5% yeast extract. The broth was dispensed into flasks prior to autoclaving, 50 mL. per flask, while 5 mL of sterile ODA solutions were aseptically added into flasks before inoculation.
(§3) To prepare ODA solutions, about 18.4 mg (0.1 mmole) of 10-oxo-trans-8-decenoic acid prepared as described above were dissolved in i mL ethanol and diluted with deionized water to 100 mL to give a molar concentration of 10^-3 M, and then diluted in order to add 1.0 mL of the solutions to each flask to give the required final concentrations.
Sterile ODA solutions were aseptically added into the autoclaved agar medium to achieve the desired final ODA concentrations, and then the medium was dispensed into petri dishes, ca 30 ml per dish. The levels of ODA tested included 2×10^-4, 10^-4, 10^-5, 10^-6 and 10^-7 M for both PDY agar and broth. These flasks and dishes were inoculated with 1 mm mycelial plugs from 4-week old cultures and incubated statically at 25° C. for 5 weeks. Each week, ca 300 μL of broth was aseptically taken from the flasks for laccase assay, while the colony diameter of every petri dish was measured using a vernier caliper to calculate the linear growth of the culture.
The activity of laccase was assayed as described in Leonowicz et al., (1981). The reaction mixture consisted of 1.0 ml of 0.04M MES (2-[N-morpholino] ethanesulfonic acid, Sigma)-NaOH buffer, pH 5.3, 200 μL of 0.5 mM syringaldazine ([…], Sigma) in EtOH, and 100 μL of culture broth withdrawn from the flasks making up a final volume of 1.3 mL. The control mixture contained no culture broth. The change in absorbance was monitored for 5 mins at 525 nm. Laccase activity was expressed in units of kat, the conversion of 1 mole of syringaldazine per sec.
(§4) Methods for the estimation of total fungal growth include the measurement of dry matter, linear growth, carbon dioxide evolution, chitin, ATP as well as extracellular laccase activity (Cochrane, (1958); Wood, (1979)). In this research the linear growth rate was used to examine the growth of mushroom mycelia on agar plates, while the extracellular laccase activity and dry matter were determined to estimate the growth of mycelia in liquid cultures. Extracellular laccases (p-diphenol: oxygen oxidoreductase, EC 1.10.3.2) produced by various classes of fungi are reported to be involved in biotransformation of lignin and lignosulfonate (Anders et al., (1976)), as well as in the breakdown of cellulose by cellulase (Westermark et al., (1974a); Westermark et al., (1974b); Haars et al., (1980)). Although the role of laccase in growth and development of Agaricus bisporus is not well defined, it has been observed that laccase production correlated with mycelial biomass of this fungus (Wood, (1979); Matcham et al., (1985); Claydon et al., (1988)).

[4] = tested on: Agaricus bisporus mycelia; experiment: Linear growth rate of mycelia on potato dextrose yeast (PDY) agar at 25° C.; format: cell-based, Agaricus bisporus (hybrid off-white); conditions: for linear growth rate of mycelia (in words): PDY agar; for Linear growth rate: control 5.66
Experimental: as §1, §2, §3
Sterile ODA solutions were aseptically added into the autoclaved agar medium to achieve the desired final ODA concentrations, and then the medium was dispensed into petri dishes, ca 30 ml per dish. The levels of ODA tested included 2×10^-4, 10^-4, 10^-5, 10^-6 and 10^-7 M for both PDY agar and broth. […]
as §4

SMILES: O=C/C=C/CCCCCCC(=O)O [ODA, 10-oxo-trans-8-decenoic acid]
- elongation of lower stipes (in words) [1]: no differences
- pKa [2]: 4.68
- mycelial growth by laccase activity and dry matter (in words) ([3]; 10^-6 and 10^-5 M (0.184 and 1.84 ppm), liquid culture): stimulated
- LOG [Laccase activity (mkat/ml)] ([3]; ODA 2 × 10^-4 M (36.8 ppm), Week 1, control 0.49): 0.25 LOG (mkat/ml)
- LOG [Laccase activity (mkat/ml)] ([3]; ODA 2 × 10^-4 M (36.8 ppm), Week 2, control 1.19): 1.84 LOG (mkat/ml)
- LOG [Laccase activity (mkat/ml)] ([3]; ODA 2 × 10^-4 M (36.8 ppm), Week 3, control 1.97): 2.07 LOG (mkat/ml)
- LOG [Laccase activity (mkat/ml)] ([3]; ODA 2 × 10^-4 M (36.8 ppm), Week 4, control 2.37): 2.15 LOG (mkat/ml)
- LOG [Laccase activity (mkat/ml)] ([3]; ODA 2 × 10^-4 M (36.8 ppm), Week 5, control 2.74): 2.38 LOG (mkat/ml)
- LOG [Laccase activity (mkat/ml)] ([3]; ODA 10^-4 M (18.4 ppm), Week 1, control 0.49): 1.04 LOG (mkat/ml)
- LOG [Laccase activity (mkat/ml)] ([3]; ODA 10^-4 M (18.4 ppm), Week 2, control 1.19): 2.13 LOG (mkat/ml)
- LOG [Laccase activity (mkat/ml)] ([3]; ODA 10^-4 M (18.4 ppm), Week 3, control 1.97): 2.29 LOG (mkat/ml)
- LOG [Laccase activity (mkat/ml)] ([3]; ODA 10^-4 M (18.4 ppm), Week 4, control 2.37): 2.38 LOG (mkat/ml)
- LOG [Laccase activity (mkat/ml)] ([3]; ODA 10^-4 M (18.4 ppm), Week 5, control 2.74): 2.64 LOG (mkat/ml)
- LOG [Laccase activity (mkat/ml)] ([3]; ODA 10^-5 M (1.84 ppm), Week 1, control 0.49): 1.63 LOG (mkat/ml)
- LOG [Laccase activity (mkat/ml)] ([3]; ODA 10^-5 M (1.84 ppm), Week 2, control 1.19): 2.62 LOG (mkat/ml)
- LOG [Laccase activity (mkat/ml)] ([3]; ODA 10^-5 M (1.84 ppm), Week 3, control 1.97): 2.90 LOG (mkat/ml)
- LOG [Laccase activity (mkat/ml)] ([3]; ODA 10^-5 M (1.84 ppm), Week 4, control 2.37): 3.20 LOG (mkat/ml)
- LOG [Laccase activity (mkat/ml)] ([3]; ODA 10^-5 M (1.84 ppm), Week 5, control 2.74): 3.53 LOG (mkat/ml)
- LOG [Laccase activity (mkat/ml)] ([3]; ODA 10^-6 M (0.184 ppm), Week 1, control 0.49): 1.16 LOG (mkat/ml)
- LOG [Laccase activity (mkat/ml)] ([3]; ODA 10^-6 M (0.184 ppm), Week 2, control 1.19): 2.34 LOG (mkat/ml)
- LOG [Laccase activity (mkat/ml)] ([3]; ODA 10^-6 M (0.184 ppm), Week 3, control 1.97): 2.76 LOG (mkat/ml)
- LOG [Laccase activity (mkat/ml)] ([3]; ODA 10^-6 M (0.184 ppm), Week 4, control 2.37): 3.07 LOG (mkat/ml)
- LOG [Laccase activity (mkat/ml)] ([3]; ODA 10^-6 M (0.184 ppm), Week 5, control 2.74): 3.43 LOG (mkat/ml)
- LOG [Laccase activity (mkat/ml)] ([3]; ODA 10^-7 M (0.0184 ppm), Week 1, control 0.49): 0.73 LOG (mkat/ml)
- LOG [Laccase activity (mkat/ml)] ([3]; ODA 10^-7 M (0.0184 ppm), Week 2, control 1.19): 2.15 LOG (mkat/ml)
- LOG [Laccase activity (mkat/ml)] ([3]; ODA 10^-7 M (0.0184 ppm), Week 3, control 1.97): 2.57 LOG (mkat/ml)
- LOG [Laccase activity (mkat/ml)] ([3]; ODA 10^-7 M (0.0184 ppm), Week 4, control 2.37): 2.86 LOG (mkat/ml)
- LOG [Laccase activity (mkat/ml)] ([3]; ODA 10^-7 M (0.0184 ppm), Week 5, control 2.74): 3.08 LOG (mkat/ml)
- linear growth rate of mycelia (in words) ([4]; 2×10^-4 and 10^-4 M (36.8 and 18.4 ppm)): greatly increased
- linear growth rate of mycelia (in words) ([4]; 10^-5 M (1.84 ppm)): slightly increased
- activity at 200 µM ([4]; Agaricus bisporus, ODA 2 × 10^-4 M (36.8 ppm), control 1.00 d, significance letter a, read-out: Relative linear growth rate): 188%
- activity at 100 µM ([4]; Agaricus bisporus, ODA 10^-4 M (18.4 ppm), control 1.00 d, significance letter b, read-out: Relative linear growth rate): 150%
- activity at 10 µM ([4]; Agaricus bisporus, ODA 10^-5 M (1.84 ppm), control 1.00 d, significance letter c, read-out: Relative linear growth rate): 114%
- activity at 1 µM ([4]; Agaricus bisporus, ODA 10^-6 M (0.184 ppm), control 1.00 d, significance letters cd, read-out: Relative linear growth rate): 110%
- activity at 0.1 µM ([4]; Agaricus bisporus, ODA 10^-7 M (0.0184 ppm), control 1.00 d, significance letters cd, read-out: Relative linear growth rate): 105%
- Linear growth rate ([4]; ODA 2 × 10^-4 M (36.8 ppm) in PDY agar): 9.85 mm/wk
- Linear growth rate ([4]; ODA 10^-4 M (18.4 ppm) in PDY agar): 8.42 mm/wk
- Linear growth rate ([4]; ODA 10^-5 M (1.84 ppm) in PDY agar): 6.40 mm/wk
- Linear growth rate ([4]; ODA 10^-6 M (0.184 ppm) in PDY agar): 6.17 mm/wk
- Linear growth rate ([4]; ODA 10^-7 M (0.0184 ppm) in PDY agar): 5.90 mm/wk
- effect on mushroom mycelial growth (in words) ([4]; PDY agar and broth, linear growth, dry matter and laccase activity): significant stimulatory effect
